Test results reported in patent US9221796B2, “Selective NR2B antagonists” (BRISTOL-MYERS SQUIBB COMPANY, priority 2014, dated 2015).

These compounds were tested against NR2B-subtype NMDA receptors (Rattus norvegicus (Rat), UniProt P35439+Q00960) (assay: Radioligand binding assay (3H Ro 25-6981 competition, forebrain membranes)). Conditions: 3H Ro 25-6981 (4 nM), read-out: NR2B Binding Ki.
Procedure, shortened: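 Rat forebrain membranes competed against [3H]Ro 25-6981 for 1 hr at room temperature, then filtered onto PEI-treated GF/B plates and counted by scintillation. CPM converted to % inhibition, concentration-response curves fitted, Ki derived from at least two experiments.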

Sequence of NR2B-subtype NMDA receptors (Q00960 27-1482, other chains not shown): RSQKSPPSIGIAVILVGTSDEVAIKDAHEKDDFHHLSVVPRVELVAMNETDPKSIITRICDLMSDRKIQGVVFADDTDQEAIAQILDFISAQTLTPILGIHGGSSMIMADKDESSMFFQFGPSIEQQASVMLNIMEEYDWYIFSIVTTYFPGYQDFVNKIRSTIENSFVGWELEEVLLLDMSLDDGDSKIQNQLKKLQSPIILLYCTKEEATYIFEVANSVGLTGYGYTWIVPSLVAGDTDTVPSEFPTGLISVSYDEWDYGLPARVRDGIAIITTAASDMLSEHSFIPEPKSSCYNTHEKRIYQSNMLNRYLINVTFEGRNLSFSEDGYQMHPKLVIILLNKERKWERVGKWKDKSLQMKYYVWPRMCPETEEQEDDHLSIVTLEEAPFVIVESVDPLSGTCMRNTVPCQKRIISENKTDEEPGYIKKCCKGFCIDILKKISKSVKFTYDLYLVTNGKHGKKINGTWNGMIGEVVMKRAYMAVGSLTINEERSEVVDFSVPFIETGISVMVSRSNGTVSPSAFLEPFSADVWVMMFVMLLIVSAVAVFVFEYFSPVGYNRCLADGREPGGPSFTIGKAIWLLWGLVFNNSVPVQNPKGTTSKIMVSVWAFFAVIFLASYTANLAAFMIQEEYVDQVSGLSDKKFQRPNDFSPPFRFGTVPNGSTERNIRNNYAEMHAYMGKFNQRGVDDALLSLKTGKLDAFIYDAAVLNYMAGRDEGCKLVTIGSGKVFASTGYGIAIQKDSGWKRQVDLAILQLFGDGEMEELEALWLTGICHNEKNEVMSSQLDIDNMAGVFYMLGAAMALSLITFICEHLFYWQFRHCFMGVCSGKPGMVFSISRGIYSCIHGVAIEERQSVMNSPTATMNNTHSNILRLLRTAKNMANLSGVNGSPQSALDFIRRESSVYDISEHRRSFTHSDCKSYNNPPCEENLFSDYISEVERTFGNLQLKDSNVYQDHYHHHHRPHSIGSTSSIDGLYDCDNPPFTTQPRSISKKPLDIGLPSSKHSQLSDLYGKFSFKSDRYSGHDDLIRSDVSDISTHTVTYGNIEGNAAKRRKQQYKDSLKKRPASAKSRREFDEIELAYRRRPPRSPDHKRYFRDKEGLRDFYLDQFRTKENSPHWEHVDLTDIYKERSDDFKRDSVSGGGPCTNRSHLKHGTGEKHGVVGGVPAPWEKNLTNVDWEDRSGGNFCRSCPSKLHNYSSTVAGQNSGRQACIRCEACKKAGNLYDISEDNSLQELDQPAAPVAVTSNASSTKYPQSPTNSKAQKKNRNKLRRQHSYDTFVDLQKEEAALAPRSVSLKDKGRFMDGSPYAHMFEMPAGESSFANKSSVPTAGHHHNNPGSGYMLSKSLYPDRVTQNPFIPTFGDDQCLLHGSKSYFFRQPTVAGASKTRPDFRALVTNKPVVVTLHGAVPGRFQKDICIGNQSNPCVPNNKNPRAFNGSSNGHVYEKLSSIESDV

| SMILES | Ki |
| --- | --- |
| O=C1C(N2CCC(c3ccc(O)cc3)CC2)CCN1Cc1ccc(F)cc1 (racemic) [Example 1, 1-(4-Fluorobenzyl)-3-(4-(4-hydroxyphenyl)piperidin-1-yl)pyrrolidin-2-one] | 3 nM |
| O=C1C(N2CCCC(c3ccc(O)cc3)C2)CCN1Cc1ccc(F)cc1 (centres unmarked) [Example 4, 1-(4-Fluorobenzyl)-3-(3-(4-hydroxyphenyl)piperidin-1-yl)pyrrolidin-2-one] | ≥ 5000 nM |
| O=C1C(N2CCC(c3ccc(O)cc3)C(F)(F)C2)CCN1Cc1ccc(F)c(F)c1 (centres unmarked) [Example 97, 3-(3,3-Difluoro-4-(4-hydroxyphenyl)piperidin-1-yl)-1-(3,4-difluorobenzyl)pyrrolidin-2-one] | 45 nM |
| O=C1[C@H](N2CCC(c3ccc(O)cc3)CC2)CCN1Cc1ccccc1 [Example 13b, (R)-1-Benzyl-3-(4-(4-hydroxyphenyl)piperidin-1-yl)pyrrolidin-2-one] | 1.6 nM |
| O=C1C(N2CCC(c3ccc(O)cc3)C(F)(F)C2)CCN1Cc1ccc(OC(F)F)cc1 (centres unmarked) [Example 105, 3-(3,3-Difluoro-4-(4-hydroxyphenyl)piperidin-1-yl)-1-(4-(difluoromethoxy)benzyl)-pyrrolidin-2-one] | 180 nM |
| O=C1[C@H](N2CC[C@@H](c3ccc(O)cc3)[C@H](F)C2)CCN1Cc1ccc(C(F)F)cc1 [Example 114, P-1, (R)-1-(4-(difluoromethyl)benzyl)-3-((3S,4S)-3-fluoro-4-(4-hydroxyphenyl)piperidin-1-yl)pyrrolidin-2-one] | 3.5 nM |
| C[C@@H](c1ccccc1)N1CC[C@H](N2CCC(c3ccc(O)cc3)CC2)C1=O [Example 33a, (S)-3-(4-(4-Hydroxyphenyl)piperidin-1-yl)-1-((S)-1-phenylethyl)pyrrolidin-2-one] | ≥ 5000 nM |
| O=C1[C@@H](N2CC[C@@H](c3ccc(O)c(F)c3)[C@H](F)C2)CCN1Cc1ccc(C(F)F)cc1 [Example 117, P-1, (S)-1-(4-(difluoromethyl)benzyl)-3-((3S,4S)-3-fluoro-4-(3-fluoro-4-hydroxyphenyl)piperidin-1-yl)pyrrolidin-2-one] | 79 nM |
| O=C1C(N2CC[C@H](c3ccc(O)cc3)[C@@H](F)C2)CCN1Cc1ccc(OC(F)F)cc1 (stereo partly drawn) [Example 78, 1-(4-(Difluoromethoxy)benzyl)-3-((3R,4R)-3-fluoro-4-(4-hydroxyphenyl)piperidin-1-yl)pyrrolidin-2-one] | 190 nM |
| O=C1[C@H](N2CCC(c3ccc(O)cc3)CC2)CCN1Cc1ccc(F)cc1 [Example 2b, (R)-1-(4-Fluorobenzyl)-3-(4-(4-hydroxyphenyl)piperidin-1-yl)pyrrolidin-2-one] | 1.4 nM |
| O=C1[C@@H](N2CC[C@H](c3ccc(O)cc3)[C@@H](F)C2)CCN1Cc1ccccc1 [Example 74, (S)-1-Benzyl-3-((3R,4R)-3-fluoro-4-(4-hydroxyphenyl)piperidin-1-yl)pyrrolidin-2-one] | 680 nM |
| O=C1[C@H](N2CC[C@H](c3ccc(O)cc3)[C@@H](F)C2)CCN1Cc1ccccc1 [Example 75, (R)-1-Benzyl-3-((3R,4R)-3-fluoro-4-(4-hydroxyphenyl)-piperidin-1-yl)pyrrolidin-2-one] | 8 nM |
| O=C1[C@@H](N2CC[C@H](c3ccc(O)cc3)[C@@H](F)C2)CCN1Cc1ccc(Cl)c(F)c1 [Example 82, (S)-1-(4-Chloro-3-fluorobenzyl)-3-((3R,4R)-3-fluoro-4-(4-hydroxyphenyl)piperidin-1-yl)pyrrolidin-2-one] | 860 nM |
| O=C1C(N2CCC(c3ccc(O)cc3)CC2)CCN1Cc1ccc(O)cc1 (centres unmarked) [Example 24, 1-(4-Hydroxybenzyl)-3-(4-(4-hydroxyphenyl)piperidin-1-yl)pyrrolidin-2-one] | 4.7 nM |

Now from value to compound:

| Ki | SMILES |
| --- | --- |
| 78 nM | Cc1cc(O)ccc1C1CCN(C2CCN(Cc3ccccc3)C2=O)CC1 (centres unmarked) [Example 29, 1-Benzyl-3-(4-(4-hydroxy-2-methylphenyl)piperidin-1-yl)pyrrolidin-2-one] |
| 3.8 nM | Cc1ccc(CN2CC[C@@H](N3CC[C@@H](c4ccc(O)cc4)[C@H](F)C3)C2=O)cc1F [Example 47, P-3, (R)-3-((3S,4S)-3-fluoro-4-(4-hydroxyphenyl)piperidin-1-yl)-1-(3-fluoro-4-methylbenzyl)pyrrolidin-2-one] |
| 17 nM | O=C1C(N2CCCC(c3ccc(O)cc3)CC2)CCN1Cc1ccc(F)cc1 (centres unmarked) [Example 35, 1-(4-Fluorobenzyl)-3-(4-(4-hydroxyphenyl)azepan-1-yl)pyrrolidin-2-one] |
| ≥ 5000 nM | C[C@@H](c1ccc(F)cc1)N1CCC(N2CCC(c3ccc(O)cc3)C(F)(F)C2)C1=O (single isomer, unassigned) [Example 56, P-1] |
| 590 nM | O=C1C(N2CCC(c3ccc(O)cc3)C(F)(F)C2)CCN1Cc1ccc(F)c(Cl)c1 (centres unmarked) [Example 111, 1-(3-Chloro-4-fluorobenzyl)-3-(3,3-difluoro-4-(4-hydroxyphenyl)piperidin-1-yl)pyrrolidin-2-one] |
| 54 nM | O=C1[C@@H](N2CCC(c3ccc(O)cc3)C(F)(F)C2)CCN1Cc1ccc(Cl)cc1 (stereo partly drawn) [Example 95, P-1, (3S)-1-(4-Chlorobenzyl)-3-(3,3-difluoro-4-(4-hydroxyphenyl)piperidin-1-yl)pyrrolidin-2-one] |
| 150 nM | Cc1ccc(CN2CCCC(N3CCC(c4ccc(O)cc4)CC3)C2=O)cc1 (centres unmarked) [Example 38, 4-(4-Hydroxyphenyl)-1′-(4-methylbenzyl)-[1,3′-bipiperidin]-2′-one] |
| 740 nM | O=C1[C@@H](N2CCC(c3ccc(O)cc3)C(F)(F)C2)CCN1Cc1ccccc1 (stereo partly drawn) [Example 102, P-1, (3S)-1-Benzyl-3-(3,3-difluoro-4-(4-hydroxyphenyl)piperidin-1-yl)pyrrolidin-2-one] |
| 200 nM | O=C1C(N2CCC(c3ccc(O)cc3)CC2)CCCN1Cc1ccccc1 (single isomer, unassigned) [Example 41b, 1′-Benzyl-4-(4-hydroxyphenyl)-[1,3′-bipiperidin]-2′-one] |

Same assay, conditions: 3H Ro 25-6981 (4 nM), read-out: binding Ki

| Ki | SMILES |
| --- | --- |
| 4 nM | O=C1C(N2CCC(c3ccc(O)cc3)CC2)CCN1Cc1ccc(F)cc1 (racemic) [Example 1, 1-(4-Fluorobenzyl)-3-(4-(4-hydroxyphenyl)piperidin-1-yl)pyrrolidin-2-one] |

What follows are compounds tested against NR2B-subtype receptors (Mus musculus (Mouse), UniProt P35438+Q01097) (assay: Ex vivo occupancy assay). Conditions: mice, after i.v. dosing.
Type: in vivo
Method: 7-9 weeks old male CD-1 mice were dosed intravenously in a vehicle consisting of 10% dimethylacetamide, 40% PEG-400, […], and 30% water with experimental compounds and the forebrains were harvested 15 minutes […] by decapitation. The brain samples were immediately snap-frozen and stored at −80° C. On the following day, the dosed brain samples were thawed on ice for 15-20 minutes followed by homogenization using Polytron for 10 seconds in cold homogenization buffer composed of 50 mM KH2PO4 (pH adjusted to 7.4 with KOH), 1 mM EDTA, 0.005% Triton X 100 and protease inhibitor cocktail (Sigma Aldrich). The crude homogenates were further homogenized using a Dounce homogenizer and the homogenized membrane aliquots from all animals were flash-frozen and stored at −80° C. until further use. The whole homogenization process was performed on ice.
For determining occupancy, the membrane homogenates were first thawed on ice and then needle-homogenized using a 25 gauge needle. The homogenized membrane (6.4 mg/ml) was added to a 96-well plate followed by addition of ^3H Ro 25-6981 (6 nM). […] The filter plates were dried at 50° C. for 20 mins, incubated with microscint 20 for 10 minutes and read on TopCount (Perkin Elmer). […] Non-specific binding was determined using 10 μM Ro 25-6981 added to the wells containing membrane homogenates from vehicle-dosed animals. […]

Sequence of NR2B-subtype receptors (Q01097 27-1482, other chains not shown): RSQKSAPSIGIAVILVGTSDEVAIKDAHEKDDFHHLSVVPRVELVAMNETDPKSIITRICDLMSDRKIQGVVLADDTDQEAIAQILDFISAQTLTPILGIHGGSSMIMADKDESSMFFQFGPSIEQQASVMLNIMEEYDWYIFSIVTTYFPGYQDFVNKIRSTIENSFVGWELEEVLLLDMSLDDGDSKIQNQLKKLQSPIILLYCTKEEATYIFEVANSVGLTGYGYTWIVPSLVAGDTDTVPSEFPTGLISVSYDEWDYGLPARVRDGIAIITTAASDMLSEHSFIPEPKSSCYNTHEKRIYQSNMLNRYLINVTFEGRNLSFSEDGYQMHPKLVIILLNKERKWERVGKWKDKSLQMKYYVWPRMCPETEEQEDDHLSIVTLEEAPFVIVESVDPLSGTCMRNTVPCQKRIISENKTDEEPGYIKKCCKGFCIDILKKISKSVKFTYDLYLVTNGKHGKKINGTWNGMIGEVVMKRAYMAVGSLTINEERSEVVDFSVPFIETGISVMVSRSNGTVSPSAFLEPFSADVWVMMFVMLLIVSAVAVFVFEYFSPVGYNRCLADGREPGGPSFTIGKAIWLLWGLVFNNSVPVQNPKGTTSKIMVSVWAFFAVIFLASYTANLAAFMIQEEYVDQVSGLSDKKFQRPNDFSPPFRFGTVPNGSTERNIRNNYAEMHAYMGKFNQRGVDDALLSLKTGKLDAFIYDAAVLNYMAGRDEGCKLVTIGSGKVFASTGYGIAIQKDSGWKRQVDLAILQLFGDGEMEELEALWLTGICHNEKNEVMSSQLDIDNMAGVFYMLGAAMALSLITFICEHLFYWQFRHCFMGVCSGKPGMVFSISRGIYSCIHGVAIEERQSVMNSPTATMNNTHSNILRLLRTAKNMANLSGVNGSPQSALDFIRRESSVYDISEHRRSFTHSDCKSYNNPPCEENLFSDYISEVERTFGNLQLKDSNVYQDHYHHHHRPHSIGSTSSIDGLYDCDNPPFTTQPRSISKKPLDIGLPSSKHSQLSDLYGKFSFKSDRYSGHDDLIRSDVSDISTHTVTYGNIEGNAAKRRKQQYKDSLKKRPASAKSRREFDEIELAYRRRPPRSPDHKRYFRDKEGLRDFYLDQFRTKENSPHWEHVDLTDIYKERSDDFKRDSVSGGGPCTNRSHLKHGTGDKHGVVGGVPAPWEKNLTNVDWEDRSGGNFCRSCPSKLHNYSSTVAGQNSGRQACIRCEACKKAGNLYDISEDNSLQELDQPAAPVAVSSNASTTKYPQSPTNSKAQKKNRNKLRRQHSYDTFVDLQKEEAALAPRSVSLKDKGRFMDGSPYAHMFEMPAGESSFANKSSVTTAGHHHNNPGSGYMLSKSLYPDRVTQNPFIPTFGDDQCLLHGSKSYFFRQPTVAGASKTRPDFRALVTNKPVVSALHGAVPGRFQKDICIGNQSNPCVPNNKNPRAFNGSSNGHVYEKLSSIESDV

| SMILES | occupancy of brain-resident NR2B-subtype receptors (in words) |
| --- | --- |
| O=C1C(N2CCC(c3ccc(O)cc3)CC2)CCN1Cc1ccc(F)cc1 (racemic) [Example 1, 1-(4-Fluorobenzyl)-3-(4-(4-hydroxyphenyl)piperidin-1-yl)pyrrolidin-2-one] | occupies brain-resident NR2B-subtype receptors |

What follows are compounds tested on mice (assay: Mouse Forced Swim Test (mFST)). Conditions: 1 mg/Kg i.v., 15 min before swim session, 6 min test.
Type: in vivo
Method: Mouse Forced Swim Test (mFST).
Forced Swim Test (FST) is an animal model used to assess antidepressant compounds in preclinical studies. The FST was performed similar to the method of Porsolt et al. with modifications (Porsolt R D, Bertin A, Jalfre M. Behavioral despair in mice: a primary screening test for antidepressants. Arch Int Pharmacodyn Thér 1977; 229:327-36). In this paradigm, mice are forced to swim in an inescapable cylinder filled with water. Under these conditions, mice will initially try to escape and eventually develop immobility behavior; this behavior is interpreted as a passive stress-coping strategy or depression-like behavior. […] The duration of immobility was evaluated during the total 6 min of the test and expressed as duration (sec) of immobility. […] All testing sessions were recorded with a video camera (Sony Handicam, Model: DCR—HC38E; PAL) and scoring was done using the Forced Swim Scan, Version 2.0 software (Clever Systems Inc., Reston, Va., USA; see Hayashi E, Shimamura M, Kuratani K, Kinoshita M, Hara H. Automated experimental system capturing three behavioral components during murine forced swim test. Life Sci. 2011 Feb. 28; 88(9-10):411-7 and Yuan P, Tragon T, Xia M, Leclair C A, Skoumbourdis A P, Zheng W, Thomas C J, Huang R, Austin C P, Chen G, Guitart X. Phosphodiesterase 4 inhibitors enhance […] in rodents. […]

| SMILES | immobility time |
| --- | --- |
| Cc1ccc(CN2CC[C@@H](N3CC[C@@H](c4ccc(O)cc4)[C@H](F)C3)C2=O)cc1 [Example 46, P-4, (R)-3-((3S,4S)-3-fluoro-4-(4-hydroxyphenyl)piperidin-1-yl)-1-(4-methylbenzyl)pyrrolidin-2-one] | statistically significant decrease in immobility time |
